Reference: the supplement of paper PMC8967900

Experiments:
Experiment in all cases: selective drug sensitivity score (sDSS, relative to normal bone marrow) (sDSS (score)); higher = more potent and effective on the cell line relative to normal bone marrow cells
Conditions in all cases: 72 h
[1] = tested on: ALL-SIL
[2] = tested on: HAL-01
[3] = tested on: LC4-1
[4] = tested on: 697
[5] = tested on: P12-ICHIKAWA
[6] = tested on: DND-41
[7] = tested on: COG-LL-319h
[8] = tested on: SUP-B15
[9] = tested on: RPMI-8402
[10] = tested on: COG-LL-332h
[11] = tested on: NALM-6
[12] = tested on: COG-LL-317
[13] = tested on: KASUMI-9
[14] = tested on: ALL-PO
[15] = tested on: PF-382
[16] = tested on: MOLT-4
[17] = tested on: JURKAT
[18] = tested on: CCRF-CEM
[19] = tested on: CCRF-HSB2
[20] = tested on: KASUMI-2
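Note: ALL cell lines in 384-well plates, five doses spanning 10,000-fold, each plate scaled between vehicle and 100 µmol/L benzalkonium chloride controls, sDSS an adapted area-under-curve metric.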

| SMILES | selective drug sensitivity score [1] | selective drug sensitivity score [2] | selective drug sensitivity score [3] | selective drug sensitivity score [4] | selective drug sensitivity score [5] | selective drug sensitivity score [6] | selective drug sensitivity score [7] | selective drug sensitivity score [8] | selective drug sensitivity score [9] | selective drug sensitivity score [10] | selective drug sensitivity score [11] | selective drug sensitivity score [12] | selective drug sensitivity score [13] | selective drug sensitivity score [14] | selective drug sensitivity score [15] | selective drug sensitivity score [16] | selective drug sensitivity score [17] | selective drug sensitivity score [18] | selective drug sensitivity score [19] | selective drug sensitivity score [20] |
| --- | --- | --- | --- | --- | --- | --- | --- | --- | --- | --- | --- | --- | --- | --- | --- | --- | --- | --- | --- | --- |
| CN(C)CC#Cc1ccc(OCCCc2sc(N3CCc4cccc(C(=O)Nc5nc6ccccc6s5)c4C3)nc2C(=O)O)c(F)c1 (top concentration 10000 nM) | 37.6 | 2.06 | 0.36 | -2.04 | 39.3 | 34 | 21.7 | 13.6 | 27.9 | 15.7 | 11.3 | 39.8 | -1.24 | 0.46 | 24.4 | 34.8 | 10.9 | 32.8 | 17.1 | 5.86 |
| CCc1cncnc1N1CCN(Cc2nc3cc(C(F)(F)F)ccc3[nH]2)CC1 (top concentration 10000 nM) | 1.76 | 4.76 | 4.16 | 4.16 | 3.66 | 0.56 | 1.46 | 3.46 | 5.96 | 1.46 | 1.96 | 1.26 | 3.86 | 3.86 | 2.96 | 2.16 | 7.36 | 0.36 | 4.16 | 2.76 |
| CC[C@H](C)C(=O)O[C@H]1C[C@@H](C)C=C2C=C[C@H](C)[C@H](CC[C@@H]3C[C@@H](O)CC(=O)O3)[C@H]21 [Lovastatin] (top concentration 10000 nM) | 0.9 | 2.5 | 0.8 | 0.1 | 1.4 | -0.1 | -0.1 | -0.1 | 1.8 | 0.1 | -0.1 | 3.6 | 2.7 | -0.1 | 0 | -0.1 | 0.1 | 0 | -0.1 | -0.1 |
| CNc1nc(Nc2cn(C(C)(C)C#N)nc2C)ncc1C(F)(F)F [GNE-0877] (top concentration 1000 nM) | 0 | 0 | 0 | 0 | 0 | 0 | 0 | 0 | 0 | 0 | 0 | 0 | 0 | 0 | 0 | 0 | 0 | 0 | 0 | 1 |
